Reference: ChEMBL document CHEMBL1933022, “Synthetic studies of bi-fluorescence-labeled maltooligosaccharides as substrates for α-amylase on the basis of fluorescence resonance energy transfer (FRET)” (Bioorg Med Chem, 2012)
The source made the active and inactive calls. No cut-off for these calls is given here.

These compounds were tested against T1, Alpha-amylase 1A (Homo sapiens) (UniProt P0DUB6) (assay: Activity of human saliva alpha-amylase assessed as decrease in fluorescence intensity measured for every 3 mins for 30 mins by FRET analysis).
T1 sequence (whole entry): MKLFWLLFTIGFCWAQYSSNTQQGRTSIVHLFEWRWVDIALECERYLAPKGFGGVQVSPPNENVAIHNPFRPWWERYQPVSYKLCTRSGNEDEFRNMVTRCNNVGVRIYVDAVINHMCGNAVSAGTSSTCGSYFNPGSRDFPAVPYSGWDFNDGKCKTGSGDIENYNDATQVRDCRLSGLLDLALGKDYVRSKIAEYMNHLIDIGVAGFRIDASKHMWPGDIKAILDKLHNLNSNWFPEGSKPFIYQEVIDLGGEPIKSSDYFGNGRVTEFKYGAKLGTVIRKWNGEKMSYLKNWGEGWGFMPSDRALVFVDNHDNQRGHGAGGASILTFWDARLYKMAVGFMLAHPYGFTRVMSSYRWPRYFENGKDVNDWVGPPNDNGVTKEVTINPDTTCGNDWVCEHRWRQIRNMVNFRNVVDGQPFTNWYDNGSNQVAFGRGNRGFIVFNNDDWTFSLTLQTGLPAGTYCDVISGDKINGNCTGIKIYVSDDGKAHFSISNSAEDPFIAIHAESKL
With CN(C)c1cccc2c(S(=O)(=O)NCCSCCCCCS[C@@H]3O[C@H](CO)[C@@H](O[C@H]4O[C@H](CO)[C@@H](O[C@H]5O[C@H](CO)[C@@H](O[C@H]6O[C@H](CO)[C@@H](O[C@H]7O[C@H](CO)[C@@H](O[C@H]8O[C@H](COCc9ccc%10ccccc%10c9)[C@@H](O)[C@H](O)[C@H]8O)[C@H](O)[C@H]7O)[C@H](O)[C@H]6O)[C@H](O)[C@H]5O)[C@H](O)[C@H]4O)[C@H](O)[C@H]3O)cccc12 the Activity was “Active”. CN(C)c1cccc2c(S(=O)(=O)NCCSCCCCCS[C@@H]3O[C@H](CO)[C@@H](O[C@H]4O[C@H](CO)[C@@H](O[C@H]5O[C@H](CO)[C@@H](O[C@H]6O[C@H](COCc7ccc8ccccc8c7)[C@@H](O)[C@H](O)[C@H]6O)[C@H](O)[C@H]5O)[C@H](O)[C@H]4O)[C@H](O)[C@H]3O)cccc12 was tested, and the Activity was “Active”. With CN(C)c1cccc2c(S(=O)(=O)NCCSCCCCCS[C@@H]3O[C@H](CO)[C@@H](O[C@H]4O[C@H](COCc5ccc6ccccc6c5)[C@@H](O)[C@H](O)[C@H]4O)[C@H](O)[C@H]3O)cccc12 the Activity was “inactive”. For CN(C)c1cccc2c(S(=O)(=O)NCCSCCCCCS[C@@H]3O[C@H](CO)[C@@H](O[C@H]4O[C@H](CO)[C@@H](O[C@H]5O[C@H](CO)[C@@H](O[C@H]6O[C@H](CO)[C@@H](O[C@H]7O[C@H](CO)[C@@H](O[C@H]8O[C@H](CO)[C@@H](O[C@H]9O[C@H](COCc%10ccc%11ccccc%11c%10)[C@@H](O)[C@H](O)[C@H]9O)[C@H](O)[C@H]8O)[C@H](O)[C@H]7O)[C@H](O)[C@H]6O)[C@H](O)[C@H]5O)[C@H](O)[C@H]4O)[C@H](O)[C@H]3O)cccc12, the Activity was “Active”. With CN(C)c1cccc2c(S(=O)(=O)NCCSCCCCCS[C@@H]3O[C@H](CO)[C@@H](O[C@H]4O[C@H](CO)[C@@H](O[C@H]5O[C@H](CO)[C@@H](O[C@H]6O[C@H](CO)[C@@H](O[C@H]7O[C@H](COCc8ccc9ccccc9c8)[C@@H](O)[C@H](O)[C@H]7O)[C@H](O)[C@H]6O)[C@H](O)[C@H]5O)[C@H](O)[C@H]4O)[C@H](O)[C@H]3O)cccc12 the Activity was “Active”. With CN(C)c1cccc2c(S(=O)(=O)NCCSCCCCCS[C@@H]3O[C@H](CO)[C@@H](O[C@H]4O[C@H](CO)[C@@H](O[C@H]5O[C@H](COCc6ccc7ccccc7c6)[C@@H](O)[C@H](O)[C@H]5O)[C@H](O)[C@H]4O)[C@H](O)[C@H]3O)cccc12 the Activity was “inactive”.
